One assay deals with CDK1/cyclin B (Homo sapiens, UniProt P06493). Put plainly: Kinase assay, radioactive phosphate incorporation, CDK1/cyclin B. Format: biochemical. The following applies: 100 μM ATP, 30° C.; read-out: Kinase inhibition IC50 CDK1/cyclin B. The protocol: (§1) The compounds from the examples above were investigated for their ability to inhibit the enzymatic activity of various protein kinases. This was achieved by measurement of incorporation of radioactive phosphate from ATP into appropriate polypeptide substrates. Recombinant protein kinases and kinase complexes were produced or obtained commercially. Assays were performed using 96-well plates and appropriate assay buffers (typically 25 mM β-glycerophosphate, 20 mM MOPS, 5 MM EGTA, 1 mM DTT, 1 mM Na3VO3, pH 7.4), into which were added 2-4 μg of active enzyme with appropriate substrates. The reactions were initiated by addition of Mg/ATP mix (15 mM MgCl2+100 μM ATP with 30-50 kBq per well of [γ-^32P]-ATP) and mixtures incubated as required at 30° C. Reactions were stopped on ice, followed by filtration through p81 filterplates or GF/C filterplates (Whatman Polyfiltronics, Kent, UK). After washing 3 times with 75 mM aq orthophosphoric acid, plates were dried, scintillant added and incorporated radioactivity measured in a scintillation counter (TopCount, Packard Instruments, Pangbourne, Berks, UK). Compounds for kinase assay were made up as 10 mM stocks in DMSO and diluted into 10% DMSO in assay buffer.

The next assay has as its target CDK2/cyclin E (Homo sapiens, UniProt P24941). Put plainly: Kinase assay, radioactive phosphate incorporation, CDK2/cyclin E. Format: biochemical. The following applies: 100 μM ATP, 30° C.; read-out: Kinase inhibition IC50 CDK2/cyclin E. The protocol: as §1
The next assay deals with CDK4/cyclin D1 (Homo sapiens, UniProt P11802). As to the kind of experiment: Kinase assay, radioactive phosphate incorporation, CDK4/cyclin D1. The class given is biochemical. The following applies: 100 μM ATP, 30° C.; read-out: Kinase inhibition IC50 CDK4/cyclin D1. The protocol: as §1
Another assay has as its target GSK3β (Homo sapiens, UniProt P49841). Put plainly: Kinase assay, radioactive phosphate incorporation, GSK3β. Format: biochemical. The following applies: 100 μM ATP, 30° C.; read-out: Kinase inhibition IC50 GSK3β. The protocol:
as §1

For a further assay, the system named is A549. Put plainly: 72-h MTT cytotoxicity assay, A549. The class given is cell-based. The following applies: Homo sapiens, read-out: 72-h MTT IC50 A549, A549 cell line. On the procedure: (§2) The compounds from the examples above were subjected to a standard cellular proliferation assay using human tumour cell lines obtained from the ATCC (American Type Culture Collection, 10801 University Boulevard, Manessas, Va. 20110-2209, USA). Standard 72-h MTT (thiazolyl blue; 3-[4,5-dimethylthiazol-2-yl]-2,5-diphenyltetrazolium bromide) assays were performed. In short: cells were seeded into 96-well plates according to doubling time and incubated overnight at 37° C. Test compounds were made up in DMSO and a 1/3 dilution series prepared in 100 μL cell media, added to cells (in triplicates) and incubated for 72 ho at 37° C. MTT was made up as a stock of 5 mg/mL in cell media and filter-sterilised. Media was removed from cells followed by a wash with 200 μL PBS. MTT solution was then added at 20 μL per well and incubated in the dark at 37° C. for 4 h. MTT solution was removed and cells again washed with 200 μL PBS. MTT dye was solubilised with 200 μL per well of DMSO with agitation.
Background: Tetrazolium dyes change colour on reduction, which living cells bring about.

Another assay deals with HT29. As to the kind of experiment: 72-h MTT cytotoxicity assay, HT29. The class given is cell-based. The following applies: Homo sapiens, HT-29, read-out: 72-h MTT IC50 HT29, HT29 cell line. The protocol: as §2
The subject of a further assay is Saos-2. Put plainly: 72-h MTT cytotoxicity assay, Saos-2. Format: cell-based. The following applies: Homo sapiens, read-out: 72-h MTT IC50 Saos-2, Saos-2 cell line. The protocol: as §2
The test system of assay [1] is transformed human cell lines (A549, HT29, Saos-2). Put plainly: 72-h MTT cytotoxicity assay, average of cell lines. The class given is cell-based. The following applies: read-out: 72-h MTT IC50 Average, average of A549, HT29, Saos-2. On the procedure: as §2
For the next assay, the target named is CDK2/cyclin A (Homo sapiens, UniProt P24941). As to the kind of experiment: Kinase assay, radioactive phosphate incorporation, CDK2/cyclin A. Format: biochemical. The following applies: 100 μM ATP, 30° C.; read-out: Kinase inhibition IC50 CDK2/cyclin A. On the procedure: as §1
Another assay deals with CDK7/cyclin H (Homo sapiens, UniProt P50613). Put plainly: Kinase assay, radioactive phosphate incorporation, CDK7/cyclin H. The class given is biochemical. The following applies: 100 μM ATP, 30° C.; read-out: Kinase inhibition IC50 CDK7/cyclin H. On the procedure: as §1
The target of a further assay is CDK9/cyclin T1 (Homo sapiens, UniProt P50750). As to the kind of experiment: Kinase assay, radioactive phosphate incorporation, CDK9/cyclin T1. Format: biochemical. The following applies: 100 μM ATP, 30° C.; read-out: Kinase inhibition IC50 CDK9/cyclin T1. On the procedure: as §1
Chain of CDK9/cyclin T1 (P50750 whole entry, species assumed): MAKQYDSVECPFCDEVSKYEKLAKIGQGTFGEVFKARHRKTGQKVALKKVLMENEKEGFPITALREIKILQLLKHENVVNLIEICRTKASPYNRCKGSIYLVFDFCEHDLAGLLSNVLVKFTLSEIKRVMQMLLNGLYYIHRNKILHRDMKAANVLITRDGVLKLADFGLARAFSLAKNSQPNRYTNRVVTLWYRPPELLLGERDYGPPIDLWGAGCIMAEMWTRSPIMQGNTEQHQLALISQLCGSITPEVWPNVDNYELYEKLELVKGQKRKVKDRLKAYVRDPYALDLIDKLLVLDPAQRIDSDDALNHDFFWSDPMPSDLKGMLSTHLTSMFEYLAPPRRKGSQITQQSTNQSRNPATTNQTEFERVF
Chain of CDK9/cyclin T1 (O60563 whole entry partner, species assumed): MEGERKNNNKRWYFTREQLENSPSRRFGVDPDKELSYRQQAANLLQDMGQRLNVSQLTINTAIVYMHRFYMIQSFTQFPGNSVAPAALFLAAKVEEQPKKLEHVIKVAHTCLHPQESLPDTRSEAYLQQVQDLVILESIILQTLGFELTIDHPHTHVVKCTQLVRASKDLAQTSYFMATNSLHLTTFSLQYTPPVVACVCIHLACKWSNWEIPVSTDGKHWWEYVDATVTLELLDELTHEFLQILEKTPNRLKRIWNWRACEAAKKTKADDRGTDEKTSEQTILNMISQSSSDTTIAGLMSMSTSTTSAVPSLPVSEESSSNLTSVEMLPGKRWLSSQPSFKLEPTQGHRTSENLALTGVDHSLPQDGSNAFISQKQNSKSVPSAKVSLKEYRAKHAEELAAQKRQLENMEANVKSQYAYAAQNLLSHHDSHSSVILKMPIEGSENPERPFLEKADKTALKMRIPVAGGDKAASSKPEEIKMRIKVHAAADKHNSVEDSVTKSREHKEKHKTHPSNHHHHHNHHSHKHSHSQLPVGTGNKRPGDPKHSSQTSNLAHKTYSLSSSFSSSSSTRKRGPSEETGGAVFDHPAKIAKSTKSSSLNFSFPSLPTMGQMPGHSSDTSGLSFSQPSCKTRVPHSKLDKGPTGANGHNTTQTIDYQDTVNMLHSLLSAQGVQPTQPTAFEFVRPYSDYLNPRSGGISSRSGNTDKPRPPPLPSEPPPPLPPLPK

Chain of CDK1/cyclin B (P06493 whole entry, species assumed): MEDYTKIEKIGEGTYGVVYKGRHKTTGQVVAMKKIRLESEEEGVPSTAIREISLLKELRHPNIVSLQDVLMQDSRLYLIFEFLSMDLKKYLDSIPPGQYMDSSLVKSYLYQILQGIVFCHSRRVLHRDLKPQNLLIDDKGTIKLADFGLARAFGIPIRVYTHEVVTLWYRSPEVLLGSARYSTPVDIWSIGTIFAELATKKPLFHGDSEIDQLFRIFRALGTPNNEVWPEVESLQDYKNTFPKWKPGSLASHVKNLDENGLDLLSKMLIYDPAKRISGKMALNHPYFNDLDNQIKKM
Chain of CDK1/cyclin B (P14635 whole entry partner, species assumed): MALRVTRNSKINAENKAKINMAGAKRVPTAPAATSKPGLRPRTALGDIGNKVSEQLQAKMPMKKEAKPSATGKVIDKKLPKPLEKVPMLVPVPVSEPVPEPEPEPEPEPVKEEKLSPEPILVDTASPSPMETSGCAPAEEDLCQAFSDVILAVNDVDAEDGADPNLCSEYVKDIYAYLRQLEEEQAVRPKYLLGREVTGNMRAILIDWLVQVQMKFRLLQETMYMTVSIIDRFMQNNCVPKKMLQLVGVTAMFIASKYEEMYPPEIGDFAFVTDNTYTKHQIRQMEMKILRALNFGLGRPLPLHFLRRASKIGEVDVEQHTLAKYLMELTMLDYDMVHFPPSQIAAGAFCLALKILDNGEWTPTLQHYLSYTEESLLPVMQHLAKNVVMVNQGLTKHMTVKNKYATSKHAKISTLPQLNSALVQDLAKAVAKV
Chain of CDK7/cyclin H (P50613 whole entry, species assumed): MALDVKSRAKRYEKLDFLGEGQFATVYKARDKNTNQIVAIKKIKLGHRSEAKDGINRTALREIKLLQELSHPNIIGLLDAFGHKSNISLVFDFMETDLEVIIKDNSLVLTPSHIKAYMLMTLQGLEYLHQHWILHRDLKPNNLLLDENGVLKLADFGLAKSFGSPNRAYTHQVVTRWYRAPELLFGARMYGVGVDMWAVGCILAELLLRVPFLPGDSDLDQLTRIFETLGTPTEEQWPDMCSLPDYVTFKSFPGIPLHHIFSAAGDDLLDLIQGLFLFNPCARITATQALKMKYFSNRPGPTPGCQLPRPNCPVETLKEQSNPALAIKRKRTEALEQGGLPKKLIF
Chain of CDK7/cyclin H (P51946 whole entry partner, species assumed): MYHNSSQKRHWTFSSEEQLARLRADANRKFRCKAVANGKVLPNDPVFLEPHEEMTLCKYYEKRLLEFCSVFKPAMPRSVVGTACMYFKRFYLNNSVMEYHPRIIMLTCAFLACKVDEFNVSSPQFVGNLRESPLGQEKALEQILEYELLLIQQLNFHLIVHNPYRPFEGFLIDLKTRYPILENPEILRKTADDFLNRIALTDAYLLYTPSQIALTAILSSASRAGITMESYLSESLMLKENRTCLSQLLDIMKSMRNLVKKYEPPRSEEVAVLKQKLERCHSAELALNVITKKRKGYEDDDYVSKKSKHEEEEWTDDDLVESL
Chain of CDK4/cyclin D1 (P11802 whole entry, species assumed): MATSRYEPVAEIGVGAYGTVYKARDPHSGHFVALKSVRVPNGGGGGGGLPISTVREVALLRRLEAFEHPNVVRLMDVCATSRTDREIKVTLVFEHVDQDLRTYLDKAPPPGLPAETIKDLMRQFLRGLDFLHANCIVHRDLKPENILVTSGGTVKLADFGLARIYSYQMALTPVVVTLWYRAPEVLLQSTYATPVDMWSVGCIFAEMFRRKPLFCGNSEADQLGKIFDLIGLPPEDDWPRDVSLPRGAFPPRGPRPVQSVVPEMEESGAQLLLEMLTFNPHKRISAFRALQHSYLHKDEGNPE
Chain of CDK4/cyclin D1 (P24385 whole entry partner, species assumed): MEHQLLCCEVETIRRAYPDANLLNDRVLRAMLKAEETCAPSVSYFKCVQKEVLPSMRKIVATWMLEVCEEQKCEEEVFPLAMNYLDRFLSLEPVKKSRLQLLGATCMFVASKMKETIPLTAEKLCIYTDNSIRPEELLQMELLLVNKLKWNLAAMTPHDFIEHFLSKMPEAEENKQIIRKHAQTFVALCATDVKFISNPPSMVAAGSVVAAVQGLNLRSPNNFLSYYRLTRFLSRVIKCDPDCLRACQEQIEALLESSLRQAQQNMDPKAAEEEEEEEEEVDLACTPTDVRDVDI
Chain of GSK3β (P49841 whole entry, species assumed): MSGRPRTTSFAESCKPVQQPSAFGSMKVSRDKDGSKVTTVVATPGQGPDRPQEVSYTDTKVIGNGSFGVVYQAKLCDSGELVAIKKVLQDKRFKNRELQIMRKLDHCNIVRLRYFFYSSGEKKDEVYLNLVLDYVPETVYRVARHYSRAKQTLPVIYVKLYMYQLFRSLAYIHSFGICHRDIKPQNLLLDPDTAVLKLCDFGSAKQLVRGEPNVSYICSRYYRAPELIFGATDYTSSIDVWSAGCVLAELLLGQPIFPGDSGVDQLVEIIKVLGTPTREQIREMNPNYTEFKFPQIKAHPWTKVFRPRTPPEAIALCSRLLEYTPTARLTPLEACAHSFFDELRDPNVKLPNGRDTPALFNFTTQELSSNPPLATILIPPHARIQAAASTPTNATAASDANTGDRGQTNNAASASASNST

As to `CN(C)c1ccc(Nc2nccc(-c3ccc(Cl)c(Cl)c3)n2)cc1` [Compound 20, N-[4-(3,4-Dichloro-phenyl)-pyrimidin-2-yl]-N′,N′-dimethyl-benzene-1,4-diamine], the IC50 stood at 3.9 µM at CDK1/cyclin B; 6.1 µM on CDK2/cyclin E; 20 µM on CDK4/cyclin D1; 1.1 µM on GSK3β; 35.5 µM in the assay with A549; 35.8 µM in the assay with HT29. In addition, the IC50 is 24.7 µM in the assay on Saos-2 and 32 ± 6.3 µM in [1].

Regarding `COc1ccc(Nc2nccc(-c3cccc(CN4CCN(C)CC4)c3)n2)cn1` [Compound 58, (6-Methoxy-pyridin-3-yl)-{4-[3-(4-methyl-piperazin-1-ylmethyl)-phenyl]-pyrimidin-2-yl}-amine], the IC50 was determined as 10 µM at CDK2/cyclin A; 11 µM on CDK4/cyclin D1; 36 µM at CDK7/cyclin H; 0.19 µM on CDK9/cyclin T1; 7 µM in the assay with A549; 5.7 µM in the assay with HT29. The IC50 is 9.6 µM in the assay on Saos-2 and 7.4 ± 2 µM in assay [1].

On to `COc1cccc(Nc2nccc(-c3cccc(Cn4cncn4)c3)n2)c1` [Compound 35, (3-Methoxy-phenyl)-[4-(3-[1,2,4]triazol-1-ylmethyl-phenyl)-pyrimidin-2-yl]-amine], for which the IC50 was found to be 3.2 µM on CDK2/cyclin A; 0.92 µM at CDK2/cyclin E; 0.57 µM at CDK4/cyclin D1; 0.58 µM at CDK7/cyclin H; 0.069 µM on CDK9/cyclin T1; 0.1 µM on GSK3β. Further, the IC50 came out at 15 µM in the assay with A549, 7.7 µM with HT29, 23.2 µM with Saos-2 and 15.3 ± 7.7 µM in assay [1].

For the molecule `CS(=O)(=O)NCc1cccc(-c2ccnc(Nc3cccc([N+](=O)[O-])c3)n2)c1` [Compound 40, N-{3-[2-(3-Nitro-phenylamino)-pyrimidin-4-yl]-benzyl}-methanesulfonamide], the IC50 on CDK1/cyclin B stood at 0.27 µM; at CDK2/cyclin E, 0.42 µM; at CDK7/cyclin H, 0.88 µM; at CDK9/cyclin T1, 1.6 µM; on GSK3β, 0.005 µM; in the assay with A549, 1.6 µM. For the same molecule, the IC50 in the assay with HT29 came to 1.2 µM; with Saos-2 it was 4.3 µM; in assay [1], 2.4 ± 1.7 µM.

Regarding `Oc1ccc(Nc2nccc(-c3ccc(Cl)c(Cl)c3)n2)cc1` [Compound 21, 4-[4-(3,4-Dichloro-phenyl)-pyrimidin-2-ylamino]-phenol], the IC50 on CDK1/cyclin B came out at 29 µM; on CDK2/cyclin E, 3.5 µM; on CDK4/cyclin D1 it was 29 µM; on CDK9/cyclin T1, 5.4 µM; in the assay on A549, 11.7 µM; in the assay with HT29, 15.1 µM. In addition, the IC50 is 41.5 µM with Saos-2 and 22.8 ± 16.3 µM in assay [1].

For `COc1ccc(Nc2nccc(-c3cccc(Cn4cncn4)c3)n2)cc1` [Compound 42, (4-Methoxy-phenyl)-[4-(3-[1,2,4]triazol-1-ylmethyl-phenyl)-pyrimidin-2-yl]-amine], the IC50 at CDK1/cyclin B amounted to 11 µM; on CDK2/cyclin E, 3.2 µM; at CDK4/cyclin D1 it was 2 µM; at CDK7/cyclin H, 1.1 µM; on CDK9/cyclin T1 it was 0.22 µM; at GSK3β, 0.087 µM. For the same molecule, the IC50 came to 10.6 µM with A549, 6.7 µM with HT29, 25.8 µM with Saos-2 and 14.4 ± 10.1 µM in assay [1].

For `CCNc1cccc(-c2ccnc(Nc3ccc([N+](=O)[O-])cc3)n2)c1` [Compound 26, [4-(3-Ethylamino-phenyl)-pyrimidin-2-yl]-(4-nitro-phenyl)-amine], the IC50 at CDK1/cyclin B came to 1.3 µM; at CDK2/cyclin A, 0.13 µM; on CDK2/cyclin E, 0.033 µM; at CDK7/cyclin H it was 20 µM; at CDK9/cyclin T1, 0.059 µM; on GSK3β it was 0.04 µM. Also, the IC50 in the assay with A549 stood at 1.7 µM; in the assay with HT29, 1.2 µM; in the assay on Saos-2, 1.1 µM; in [1], 1.3 ± 0.3 µM.

Consider `Oc1cccc(Nc2nccc(-c3cccc(Cl)c3)n2)c1` [Compound 18, 3-[4-(3-Chloro-phenyl)-pyrimidin-2-ylamino]-phenol], for which the values for the IC50 on CDK1/cyclin B, at CDK2/cyclin A and on CDK2/cyclin E were 5.5 µM, 3.1 µM and 1.1 µM, respectively.

As to `Clc1ccc(Nc2nccc(-c3cccc(CNCc4ccccc4)c3)n2)cn1` [Compound 48, {4-[3-(Benzylamino-methyl)-phenyl]-pyrimidin-2-yl}-(6-chloro-pyridin-3-yl)-amine], the IC50 at CDK2/cyclin A came to 9.8 µM; on CDK2/cyclin E, 1.3 µM; on CDK4/cyclin D1, 3.5 µM; at CDK7/cyclin H, 1.7 µM; at CDK9/cyclin T1 it was 1.2 µM; at GSK3β it was 0.32 µM. Further, the IC50 was 13.4 µM with A549, 5.1 µM with HT29, 20.4 µM in the assay with Saos-2 and 13 ± 7.7 µM in assay [1].

For the molecule `Oc1ccc(Nc2nccc(-c3cccc(Cn4cncn4)c3)n2)cc1` [Compound 33, 4-[4-(3-[1,2,4]triazol-1-ylmethyl-phenyl)-pyrimidin-2-ylamino]-phenol], the IC50 worked out at 2 µM on CDK2/cyclin A; 0.14 µM on CDK2/cyclin E; 9.1 µM at CDK4/cyclin D1; 1.1 µM at CDK7/cyclin H; 0.092 µM at CDK9/cyclin T1; 0.12 µM on GSK3β. The IC50 in the assay on A549 stood at 10.3 µM; in the assay on HT29 it was 20.7 µM; with Saos-2 it was 7.4 µM; in [1], 12.8 ± 7 µM.

For `O=[N+]([O-])c1cccc(Nc2nccc(-c3cccc(CNCc4ccccc4)c3)n2)c1` [Compound 27, {4-[3-(Benzylamino-methyl)-phenyl]-pyrimidin-2-yl}-(3-nitro-phenyl)-amine], the IC50 was found to be 6.5 µM on CDK2/cyclin A; 0.57 µM at CDK2/cyclin E; 16 µM at CDK4/cyclin D1; 6 µM on CDK7/cyclin H; 2 µM at CDK9/cyclin T1; 0.18 µM at GSK3β. In addition, the IC50 in the assay with A549 stood at 14.1 µM; with HT29, 4.9 µM; in the assay with Saos-2 it was 43.8 µM; in assay [1] it was 20.9 ± 20.3 µM.

As to `COc1ccc(-c2ccnc(Nc3ccc(OC)nc3)n2)cc1` [Compound 124, [4-(4-Methoxy-phenyl)-pyrimidin-2-yl]-(6-methoxy-pyridin-3-yl)-amine], the IC50 on CDK2/cyclin A was 1.1 µM; on CDK4/cyclin D1, 1.5 µM; on CDK9/cyclin T1, 0.02 µM; at GSK3β it was 0.09 µM.

For the molecule `Oc1ccc(Nc2nccc(-c3cccc(Cl)c3)n2)cc1` [Compound 17, 4-[4-(3-Chloro-phenyl)-pyrimidin-2-ylamino]-phenol], the IC50 on CDK1/cyclin B is 5.3 µM; on CDK2/cyclin A, 2.1 µM; at CDK2/cyclin E, 0.39 µM.

`N#Cc1cccc(Nc2nccc(-c3cccc(Cn4cncn4)c3)n2)c1` [Compound 36, 3-[4-(3-[1,2,4]triazol-1-ylmethyl-phenyl)-pyrimidin-2-ylamino]-benzonitrile]: the IC50 on CDK2/cyclin A stood at 3.9 µM; on CDK2/cyclin E, 0.079 µM; at CDK4/cyclin D1, 4.7 µM; on CDK7/cyclin H, 0.32 µM; on CDK9/cyclin T1, 0.009 µM; on GSK3β, 0.032 µM.

The record behind these values is patent US20070021419A1, “2-Aminophenyl-4-phenylpyrimidines as kinase inhibitors” (Cyclacel Limited, priority 2003, published 2007).
